Results as given in patent publication US7718641B2, “Pyrrolo [3,4-H] isoquinoline compounds and methods for modulating gated ion channels” (Aros Pharma ApS, priority 2005, dated 2010).

Tests used:
[1] = tested on: CFA-induced thermal hyperalgesia; assay: CFA model, thermal hyperalgesia (Hargreaves plantar test); assay type: in vivo, rat
Method: Assessment of thermal hyperalgesia: Baseline and post-treatment withdrawal latencies to a noxious thermal stimulus were measured according to Hargreaves (Hargreaves et al., 1988) using a plantar test analgesia meter (IITC, Woodland Hills, Calif., model # 336). The stimulus intensity was set at 30% of maximum output and the cut-off time was set at 30 seconds. Rats were placed on a glass plate warmed to 28° C. and allowed to habituate to the testing chambers for a minimum of 15 minutes prior to each testing session. The thermal stimulus was applied to the plantar surface of the paw, and the mean latency of three readings on each paw was used as the latency value for each time point. Thermal thresholds were defined as the latency in seconds to the first pain behavior, which includes nocifensive paw withdrawal, flinching, biting and/or licking of the stimulated paw. The mean and standard error of the mean (SEM) were determined for the injured and normal paws for each treatment group.
For comparison, results with morphine (6 mg/kg sc) and indomethacin (30 mg/kg po) are shown. […] Data are expressed as mean±SEM, (n=10). **P<0.01, vs. baseline.

[2] = tested on: CFA-induced inflammatory pain; assay: CFA model of chronic inflammatory pain, hindpaw weight bearing (Incapacitance Tester); assay type: in vivo, rat; conditions: 24 h after CFA, 60 min after drug injection, n=7-8
Method: Rats (body weight 260-300 g) were given a s.c. injection of CFA (50% in saline, 100 μl, Sigma) into the plantar surface of the hindpaw under brief halothane anaesthesia. After 24 h, they were then tested for hindpaw weight bearing responses, as assessed using an Incapacitance Tester (Linton Instrumentation, UK), (Zhu et al., 2005). The instrument incorporates a dual channel scale that separately measures the weight of the animal distributed to each hindpaw. While normal rats distribute their body weight equally between the two hindpaws (50-50), the discrepancy of weight distribution between an injured and non-injured paw is a natural reflection of the discomfort level in the injured paw (nocifensive behavior). The rats were placed in the plastic chamber designed so that each hindpaw rested on a separate transducer pad. […] For each rat, three readings from each paw were taken and then averaged. Side-to-side weight bearing difference was calculated as the average of the absolute value of the difference between two hindpaws from three trials (right paw reading-left paw reading).
Hindpaw weight bearing responses were measured in male Sprague-Dawley rats for 2-3 days prior to being given a hindpaw injection of CFA. Twenty-four hours later baseline responses were measured and rats were then administered Compound A (5, 10 and 20 mg/kg, i.p.), Compound H (10, 30 and 60 mg/kg) and morphine (3, 6 and 10 mg/kg). Weight bearing responses were then measured at 30, 60 and 120 min after drug or vehicle injection (data shown at 60 min.). […] Data are expressed as mean +/−SEM. *P<0.05, **P<0.01, *** P<0.001 vs baseline; +++: P<0.001 vs vehicle. All groups n=7-8.

Compound | efficacy on CFA-induced thermal hyperalgesia ([1]; 30 mg/kg po) | efficacy on CFA-induced thermal hyperalgesia ([1]; 6 mg/kg sc) | CFA-induced change in hindpaw weight bearing compared with vehicle [2]
COc1ccc2c(c1)c(CC(=O)O)c(C)n2C(=O)c1ccc(Cl)cc1 [indomethacin, reference compound] | fully efficacious | – | –
CN1CC[C@]23c4c5ccc(O)c4O[C@H]2[C@@H](O)C=C[C@H]3[C@H]1C5 [morphine, reference compound] | – | fully efficacious | marked dose-dependent attenuation in the CFA-induced change in weight bearing
